We go through one compound from US20050182084A1, “Method for treating erectile dysfunction” (FUJISAWA PHARMACEUTICAL CO., LTD., priority 2004, published 2005).

The experiment deals with rat cavernous nerve injury model. Description: recovery of erectile function in rat cavernous nerve injury model (intracavernous pressure). It counts as in vivo. The protocol:
Effect of the compound (Ia) on erectile dysfunction was confirmed by a rat cavernous nerve injury model.
• (1) The recovery of erectile function after cavernous nerve injury was basically assessed in a similar manner to that of BJU International 92, 470-475 (2003). • (2) The compound (Ia), in a form of the solution which was prepared in a similar manner to that of Example 1 mentioned above, or its placebo was given to rats, from 1 day after surgery to 1 day before harvesting for 8 weeks, subcutaneously after being diluted with a suitable amount of HCO-60/EtOH in physiological saline.

SMILES strings stand for the structures.

Consider `CO[C@H]1C[C@@H](C)C/C(C)=C/[C@@H](CC(C)=O)C(=O)C[C@H](O)[C@@H](C)[C@@H](/C(C)=C/[C@@H]2CC[C@@H](O)[C@H](OC)C2)OC(=O)[C@@H]2CCCCN2C(=O)C(=O)[C@]2(O)O[C@H]1[C@@H](OC)C[C@H]2C` [Compound (Ia)], for which the “effect on intracavernous pressure (in words)” value (rat cavernous nerve injury model, conclusion from Table 1) is “remarkable recovery effect on intracavernous pressure”. Moreover, the “Peak intracavernous pressure(cm H2O) mean ± S.E.” value (rat, cavernous nerve injury, 1 mg/kg subcutaneously, from 1 day after surgery for 8 weeks, n = 7, **P < 0.01 v.s. vehicle-treated (Dunnett's post-test)) is given as 97.4 ± 8.0** cm H2O.
